Several values for one entry are separate records, joined by “and”; a condition that tells them apart may be missing. Equal entries are not always repeated. Inconclusive results and toxic doses are left out.
Test system: CD2F1 mice, L1210 leukemia ip, survival T/C
Assay: NCI In Vivo Anticancer Drug Screen. Data for tumor model L1210 Leukemia (intraperitoneal) in CD2F1 (CDF1) mice
Conditions: higher = longer survival
In short: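 Vehicle-treated tumor-bearing mice served as controls (C) for compound-treated mice (T). Reported figure is T divided by C.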

[1] = endpoint: mean survival time, dose: 100.0 mg/kg/injection, schedule: Q04DX003 (ip), vehicle: saline
[2] = endpoint: mean survival time, dose: 200.0 mg/kg/injection, schedule: Q04DX003 (ip), vehicle: saline
[3] = endpoint: mean survival time, dose: 400.0 mg/kg/injection, schedule: Q04DX003 (ip), vehicle: saline
[4] = endpoint: mean survival time, dose: 100.0 mg/kg/injection, schedule: Q04DX003 (ip), vehicle: saline with Tween-80
[5] = endpoint: mean survival time, dose: 200.0 mg/kg/injection, schedule: Q04DX003 (ip), vehicle: saline with Tween-80
[6] = endpoint: mean survival time, dose: 100.0 mg/kg/injection, schedule: Q01DX009 (ip), vehicle: saline with Tween-80
[7] = endpoint: mean survival time, dose: 200.0 mg/kg/injection, schedule: Q01DX009 (ip), vehicle: saline with Tween-80
[8] = endpoint: mean survival time, dose: 400.0 mg/kg/injection, schedule: Q01DX009 (ip), vehicle: saline with Tween-80
[9] = endpoint: mean survival time, dose: 100.0 mg/kg/injection, schedule: Q04DX003 (ip), vehicle: Klucel (hydroxypropylcellulose) (HPC)
[10] = endpoint: mean survival time, dose: 200.0 mg/kg/injection, schedule: Q04DX003 (ip), vehicle: Klucel (hydroxypropylcellulose) (HPC)
[11] = endpoint: mean survival time, dose: 400.0 mg/kg/injection, schedule: Q04DX003 (ip), vehicle: Klucel (hydroxypropylcellulose) (HPC)
[12] = endpoint: mean survival time, dose: 75.0 mg/kg/injection, schedule: Q01DX001 (ip), vehicle: saline
[13] = endpoint: mean survival time, dose: 150.0 mg/kg/injection, schedule: Q01DX001 (ip), vehicle: saline
[14] = endpoint: mean survival time, dose: 100.0 mg/kg/injection, schedule: Q04DX002 (ip), vehicle: saline with Tween-80
[15] = endpoint: mean survival time, dose: 200.0 mg/kg/injection, schedule: Q04DX002 (ip), vehicle: saline with Tween-80
[16] = endpoint: mean survival time, dose: 100.0 mg/kg/injection, schedule: Q01DX009 (ip), vehicle: Klucel (hydroxypropylcellulose) (HPC)
[17] = endpoint: mean survival time, dose: 200.0 mg/kg/injection, schedule: Q01DX009 (ip), vehicle: Klucel (hydroxypropylcellulose) (HPC)

For NCCC(=O)CN, the T/C (endpoint: mean survival time, dose: 100.0 mg/kg/injection, schedule: Q01DX009 (ip), vehicle: saline) was 110 % of control, the T/C [1] was 100 % of control and the T/C (endpoint: mean survival time, dose: 200.0 mg/kg/injection, schedule: Q01DX009 (ip), vehicle: saline) was 101 % of control. For the same compound, the T/C [2] was 107 % of control, the T/C (endpoint: mean survival time, dose: 400.0 mg/kg/injection, schedule: Q01DX009 (ip), vehicle: saline) was 91 % of control and the T/C [3] was 98 % of control.

C[n+]1ccc(CCC(=O)Nc2ccccc2)cc1 was tested, and the T/C [4] was 100 % of control and the T/C [5] was 100 % of control.

C#CCOCCCC(=C)C was tested, and the T/C (endpoint: mean survival time, dose: 100.0 mg/kg/injection, schedule: Q01DX001 (ip), vehicle: acetone) was 98 % of control.

CCOC(=O)Nc1cc(F)cc(C(F)(F)F)c1F was tested, and the T/C [6] was 97 % of control, the T/C [7] was 97 % of control and the T/C [8] was 109 % of control.

For O=C([O-])CC[n+]1ccn(CCC(=O)O)c1, the T/C [1] was 109 % of control, the T/C [2] was 103 % of control and the T/C [3] was 111 % of control.

For O=C1c2ccccc2C(c2ccc(Br)cc2)C1Br (stereo unspecified), the T/C [4] was 97 % of control, the T/C [5] was 90 % of control and the T/C (endpoint: mean survival time, dose: 400.0 mg/kg/injection, schedule: Q04DX003 (ip), vehicle: saline with Tween-80) was 100 % of control.

CSc1ccc(C2=CCCCC2)cc1 was tested, and the T/C [1] was 91 % of control, the T/C [2] was 91 % of control and the T/C [3] was 96 % of control.

In the case of Cc1ccc(-c2nc(SCc3ccccc3)[nH]c(=O)c2CCO)cc1, the T/C [9] is reported as 93 % of control, the T/C [10] is reported as 96 % of control and the T/C [11] is reported as 91 % of control.

Cc1ccc(Cl)cc1S was tested, and the T/C [12] was 98 % of control, the T/C [13] was 102 % of control and the T/C (endpoint: mean survival time, dose: 300.0 mg/kg/injection, schedule: Q01DX001 (ip), vehicle: saline) was 103 % of control.

CCN(CC)c1nc(CCc2ccc(N(C)C)cc2)c2[nH]cnc2n1 was tested, and the T/C (endpoint: mean survival time, dose: 3.13 mg/kg/injection, schedule: Q01DX005 (ip), vehicle: other) was 94 % of control, the T/C (endpoint: mean survival time, dose: 6.25 mg/kg/injection, schedule: Q01DX005 (ip), vehicle: other) was 93 % of control and the T/C (endpoint: mean survival time, dose: 12.5 mg/kg/injection, schedule: Q01DX005 (ip), vehicle: other) was 93 % of control. The T/C (endpoint: mean survival time, dose: 25.0 mg/kg/injection, schedule: Q01DX005 (ip), vehicle: other) was 89 % of control and the T/C (endpoint: mean survival time, dose: 50.0 mg/kg/injection, schedule: Q01DX005 (ip), vehicle: other) was 89 % of control.

For COc1ccc(C2=CSc3ccccc3N2)cc1, the T/C [14] was 96 % of control and the T/C [15] was 104 % of control.

N#Cc1c(N)[nH]c2ccc(Sc3ccccc3)cc12 was tested, and the T/C (endpoint: median survival time, dose: 6.25 mg/kg/injection, schedule: Q01DX005 (ip), vehicle: saline with Tween-80) was 108 % of control, the T/C (endpoint: median survival time, dose: 12.5 mg/kg/injection, schedule: Q01DX005 (ip), vehicle: saline with Tween-80) was 101 % of control and 109 % of control and the T/C (endpoint: median survival time, dose: 25.0 mg/kg/injection, schedule: Q01DX005 (ip), vehicle: saline with Tween-80) was 102 % of control and 112 % of control. For the same compound, the T/C (endpoint: median survival time, dose: 43.0 mg/kg/injection, schedule: Q01DX005 (ip), vehicle: saline with Tween-80) was 112 % of control, the T/C (endpoint: median survival time, dose: 43.2 mg/kg/injection, schedule: Q01DX005 (ip), vehicle: saline with Tween-80) was 117 % of control and the T/C (endpoint: median survival time, dose: 50.0 mg/kg/injection, schedule: Q01DX005 (ip), vehicle: saline with Tween-80) was 123 % of control and 110 % of control. For the same compound, the T/C (endpoint: median survival time, dose: 100.0 mg/kg/injection, schedule: Q01DX005 (ip), vehicle: saline with Tween-80) was 101 % of control and the T/C (endpoint: median survival time, dose: 120.0 mg/kg/injection, schedule: Q01DX005 (ip), vehicle: saline with Tween-80) was 153 % of control and 164 % of control.

In the case of O=C(C=C(C(F)(F)F)C(F)(F)F)c1cccc(C(F)(F)F)c1, the T/C (endpoint: mean survival time, dose: 25.0 mg/kg/injection, schedule: Q04DX003 (ip), vehicle: saline with Tween-80) is reported as 106 % of control and the T/C (endpoint: mean survival time, dose: 50.0 mg/kg/injection, schedule: Q04DX003 (ip), vehicle: saline with Tween-80) is reported as 106 % of control.

O=C1C=C(Nc2nc(O)cc(=O)[nH]2)c2ccccc2C1=O was tested, and the T/C [16] was 97 % of control.

For O.O.[Co].[Co].[NH-]CC[NH-].[NH-]CC[NH-].[NH-]CC[NH-].[NH-]CC[NH-], the T/C (endpoint: mean survival time, dose: 25.0 mg/kg/injection, schedule: Q04DX002 (ip), vehicle: saline) was 98 % of control and the T/C (endpoint: mean survival time, dose: 50.0 mg/kg/injection, schedule: Q04DX002 (ip), vehicle: saline) was 106 % of control.

O=C1OC(=O)C2C3CC(C4OC34)C12 (stereo unspecified) was tested, and the T/C [6] was 103 % of control, the T/C [7] was 97 % of control and the T/C [8] was 87 % of control.

With O=C(O)c1[nH]c2c([N+](=O)[O-])cc([N+](=O)[O-])cc2c1C(=O)O the T/C [12] was 103 % of control and the T/C [13] was 97 % of control.

In the case of Cc1ccc2c(c1)-c1[nH]c3ccccc3c1CS2, the T/C (endpoint: mean survival time, dose: 50.0 mg/kg/injection, schedule: Q01DX009 (ip), vehicle: Klucel (hydroxypropylcellulose) (HPC)) is reported as 109 % of control, the T/C [16] is reported as 107 % of control and the T/C [17] is reported as 107 % of control.

With O=c1c2cccc3cccc(c32)c2c3c(nn12)CCCC3 the T/C (endpoint: mean survival time, dose: 12.5 mg/kg/injection, schedule: Q04DX002 (ip), vehicle: saline with Tween-80) was 102 % of control, the T/C (endpoint: mean survival time, dose: 25.0 mg/kg/injection, schedule: Q04DX002 (ip), vehicle: saline with Tween-80) was 98 % of control and the T/C (endpoint: mean survival time, dose: 50.0 mg/kg/injection, schedule: Q04DX002 (ip), vehicle: saline with Tween-80) was 94 % of control.

With CC(C)(C)C(=O)/C=C/c1ccccc1 the T/C (endpoint: mean survival time, dose: 50.0 mg/kg/injection, schedule: Q04DX003 (ip), vehicle: Klucel (hydroxypropylcellulose) (HPC)) was 96 % of control, the T/C [9] was 98 % of control and 102 % of control and the T/C [10] was 98 % of control and 110 % of control. For the same compound, the T/C [11] was 106 % of control.

With CC(=O)OC1CCC2(C)C(=CCC3C2CCC2(C)C(C(C)C(=O)O)CCC32)C1 (stereo unspecified) the T/C (endpoint: mean survival time, dose: 100.0 mg/kg/injection, schedule: Q01DX001 (ip), vehicle: saline with Tween-80) was 102 % of control, the T/C (endpoint: mean survival time, dose: 200.0 mg/kg/injection, schedule: Q01DX001 (ip), vehicle: saline with Tween-80) was 100 % of control and the T/C (endpoint: mean survival time, dose: 400.0 mg/kg/injection, schedule: Q01DX001 (ip), vehicle: saline with Tween-80) was 96 % of control.

Cc1ccc(N=Cc2cc(Cl)ccc2O)cc1.Cc1ccc(N=Cc2cc(Cl)ccc2O)cc1.[Co] was tested, and the T/C (endpoint: mean survival time, dose: 25.0 mg/kg/injection, schedule: Q04DX003 (ip), vehicle: saline) was 95 % of control and 104 % of control, the T/C (endpoint: mean survival time, dose: 50.0 mg/kg/injection, schedule: Q04DX003 (ip), vehicle: saline) was 98 % of control and 108 % of control and the T/C [1] was 124 % of control and 89 % of control.

With c1ccc(C2=NC3CCCCC3N=C2c2ccccc2)cc1 (stereo unspecified) the T/C [6] was 109 % of control, the T/C [7] was 113 % of control and the T/C [8] was 103 % of control.

With CCCCCCCCCCCCOP(=S)(OCC)OCC the T/C [14] was 98 % of control, the T/C [15] was 95 % of control and the T/C (endpoint: mean survival time, dose: 400.0 mg/kg/injection, schedule: Q04DX002 (ip), vehicle: saline with Tween-80) was 91 % of control.

With [N-]=[N+]=NC1CC(n2ccc(=O)[nH]c2=O)OC1CO (stereo unspecified) the T/C (endpoint: median survival time, dose: 12.5 mg/kg/injection, schedule: Q01DX005 (ip), vehicle: saline) was 101 % of control, the T/C (endpoint: median survival time, dose: 25.0 mg/kg/injection, schedule: Q01DX005 (ip), vehicle: saline) was 102 % of control and the T/C (endpoint: median survival time, dose: 50.0 mg/kg/injection, schedule: Q01DX005 (ip), vehicle: saline) was 100 % of control. The T/C (endpoint: median survival time, dose: 100.0 mg/kg/injection, schedule: Q01DX005 (ip), vehicle: saline) was 94 % of control and the T/C (endpoint: median survival time, dose: 200.0 mg/kg/injection, schedule: Q01DX005 (ip), vehicle: saline) was 100 % of control.

In the case of CCCCCCCCCCCCCCCCOc1ccccc1/C=N/O, the T/C [16] is reported as 87 % of control and the T/C [17] is reported as 89 % of control.

O=C(O)C1(C(=O)O)CC2(CCC2)C1 was tested, and the T/C (endpoint: mean survival time, dose: 100.0 mg/kg/injection, schedule: Q01DX001 (ip), vehicle: saline) was 100 % of control, the T/C (endpoint: mean survival time, dose: 200.0 mg/kg/injection, schedule: Q01DX001 (ip), vehicle: saline) was 100 % of control and the T/C (endpoint: mean survival time, dose: 400.0 mg/kg/injection, schedule: Q01DX001 (ip), vehicle: saline) was 100 % of control.

For OB(O)Oc1ccc(Br)cc1, the T/C (endpoint: mean survival time, dose: 50.0 mg/kg/injection, schedule: Q01DX009 (ip), vehicle: other) was 95 % of control, the T/C (endpoint: mean survival time, dose: 100.0 mg/kg/injection, schedule: Q01DX009 (ip), vehicle: other) was 91 % of control and the T/C (endpoint: mean survival time, dose: 200.0 mg/kg/injection, schedule: Q01DX009 (ip), vehicle: other) was 102 % of control.

CC(C)(C#N)Nc1ccccc1 was tested, and the T/C (endpoint: mean survival time, dose: 3.13 mg/kg/injection, schedule: Q01DX009 (ip), vehicle: saline) was 100 % of control, the T/C (endpoint: mean survival time, dose: 6.25 mg/kg/injection, schedule: Q01DX009 (ip), vehicle: saline with Tween-80) was 91 % of control and the T/C (endpoint: mean survival time, dose: 6.25 mg/kg/injection, schedule: Q01DX009 (ip), vehicle: saline) was 94 % of control. For the same compound, the T/C (endpoint: mean survival time, dose: 12.5 mg/kg/injection, schedule: Q01DX009 (ip), vehicle: saline with Tween-80) was 94 % of control.

Source: PubChem BioAssay AID256 (DTP/NCI, 2004)
